Reference: patent US5703070A, “Indole, indazole and benzisoxazole compounds” (Adir et Compagnie, priority 1995, dated 1997)
Like-named read-outs stand apart in the source and are kept apart here.

Legend:
[1] = test system: nigrostriatal dopaminergic transmission; details: background, literature; cited from earlier work
schizophrenia = details: cited from earlier work; for extrapyramidal syndrome: in vivo
in vivo = details: rat, sc
[2] = test system: mesolimbic dopaminergic pathways; test: Verticalization test with apomorphine in mice (antipsychotic properties); details: for Verticalization (Apomorphine) ID50: mice; for ED50: Mus musculus, sc
5-HT2A receptors = biological target: T1, 5-HT2A receptors (Rattus norvegicus, UniProt P14842); test: Conventional binding studies, receptor profile: 5-HT2A; details: for Ki: Receptor profile Ki, 5-HT2A; for D2 /5-HT2A: ratio of Ki values D2 / 5-HT2A
T1 construct: from tissue; host or cells: rat frontal cortex (own knowledge of the cited method)
T1 sequence (P14842 whole entry): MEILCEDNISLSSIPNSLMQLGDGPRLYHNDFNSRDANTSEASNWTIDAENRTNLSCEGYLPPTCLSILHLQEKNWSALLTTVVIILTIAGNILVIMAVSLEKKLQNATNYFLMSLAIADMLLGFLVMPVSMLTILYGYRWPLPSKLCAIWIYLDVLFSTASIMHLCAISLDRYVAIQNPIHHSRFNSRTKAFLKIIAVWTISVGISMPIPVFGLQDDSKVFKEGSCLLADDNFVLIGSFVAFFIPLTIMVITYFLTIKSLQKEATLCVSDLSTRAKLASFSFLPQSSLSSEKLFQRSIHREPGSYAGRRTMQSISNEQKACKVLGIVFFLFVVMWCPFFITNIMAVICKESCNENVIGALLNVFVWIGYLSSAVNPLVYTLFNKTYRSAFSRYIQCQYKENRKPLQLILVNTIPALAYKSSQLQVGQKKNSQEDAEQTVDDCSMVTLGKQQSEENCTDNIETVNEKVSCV
Protocol: (§1) The interaction of these compounds with various receptors was determined by using conventional binding studies, such as those described by M. J. Millan et at. […] The affinities of the compounds are expressed in Ki.

5-HT1A receptors = 5-HT1A receptors (Rattus norvegicus, UniProt P19327); test: biochemical; assay type: binding; details: for D2 /5-HT1A: ratio of Ki values D2 / 5-HT1A
5-HT1A receptors, sequence (P19327 whole entry): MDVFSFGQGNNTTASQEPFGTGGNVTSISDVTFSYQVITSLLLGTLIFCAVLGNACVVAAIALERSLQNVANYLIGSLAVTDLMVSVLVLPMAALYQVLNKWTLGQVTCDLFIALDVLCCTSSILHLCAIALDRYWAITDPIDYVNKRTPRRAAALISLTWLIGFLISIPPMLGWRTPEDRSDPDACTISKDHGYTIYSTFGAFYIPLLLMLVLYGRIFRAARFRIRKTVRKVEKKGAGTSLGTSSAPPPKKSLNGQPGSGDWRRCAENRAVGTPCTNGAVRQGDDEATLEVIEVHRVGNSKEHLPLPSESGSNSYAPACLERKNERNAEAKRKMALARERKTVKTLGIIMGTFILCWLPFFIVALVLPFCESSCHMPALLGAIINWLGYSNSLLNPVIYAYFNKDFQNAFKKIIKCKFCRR
Protocol: as §1

5-HT2C receptors [3] = biological target: T2, 5-HT2C receptors (Sus scrofa, UniProt K7GSR7); test: biochemical; assay type: binding; details: Receptor profile Ki, 5-HT2C
T2 construct: from tissue; host or cells: pig choroid plexus (own knowledge of the cited method)
T2 sequence (K7GSR7 1-457): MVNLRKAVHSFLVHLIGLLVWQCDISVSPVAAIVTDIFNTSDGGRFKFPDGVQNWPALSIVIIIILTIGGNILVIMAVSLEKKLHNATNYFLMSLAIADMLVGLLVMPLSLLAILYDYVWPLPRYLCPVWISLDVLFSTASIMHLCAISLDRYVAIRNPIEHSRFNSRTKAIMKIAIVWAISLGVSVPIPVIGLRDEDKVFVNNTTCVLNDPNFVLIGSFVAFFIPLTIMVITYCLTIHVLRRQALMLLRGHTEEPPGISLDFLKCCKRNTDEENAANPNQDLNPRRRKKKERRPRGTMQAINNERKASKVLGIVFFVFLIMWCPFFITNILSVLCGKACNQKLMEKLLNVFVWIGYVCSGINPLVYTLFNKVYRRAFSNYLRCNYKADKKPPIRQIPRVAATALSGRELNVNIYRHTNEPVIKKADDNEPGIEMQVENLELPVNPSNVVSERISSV
Protocol: as §1

D2 receptors = biological target: T3, D2 receptors (Rattus norvegicus, UniProt P61169); test: biochemical; assay type: binding
T3 construct: from tissue; host or cells: rat striatum (own knowledge of the cited method)
T3 sequence (P61169 whole entry): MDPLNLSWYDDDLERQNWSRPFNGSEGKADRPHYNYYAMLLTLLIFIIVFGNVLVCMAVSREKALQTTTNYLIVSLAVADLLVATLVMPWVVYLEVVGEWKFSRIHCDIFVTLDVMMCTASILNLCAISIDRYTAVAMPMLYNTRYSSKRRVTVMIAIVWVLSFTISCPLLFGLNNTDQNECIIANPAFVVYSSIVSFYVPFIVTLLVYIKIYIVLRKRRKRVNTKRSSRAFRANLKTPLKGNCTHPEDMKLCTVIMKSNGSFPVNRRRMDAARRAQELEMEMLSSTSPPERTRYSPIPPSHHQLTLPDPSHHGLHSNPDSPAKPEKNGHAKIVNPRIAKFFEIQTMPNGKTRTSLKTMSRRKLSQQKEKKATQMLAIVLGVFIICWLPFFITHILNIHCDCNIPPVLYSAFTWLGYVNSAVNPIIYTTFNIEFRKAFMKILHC
Protocol: as §1

5-HT2C receptors [4] = test: biochemical; assay type: binding; details: ratio of Ki values D2 / 5-HT2C
Protocol: as §1

[5] = test system: nigrostriatal dopaminergic transmission; test: Catalepsy in rats (extrapyramidal potential); details: for ED50 /ID50 Ratio: catalepsy ED50 (rats) / verticalization ID50 (mice), hydrochloride
[6] = read-out: Receptor profile Ki, 5-HT1A
[7] = read-out: Receptor profile Ki, D2
[8] = read-out: Verticalization (Apomorphine) ID50, mice, s.c. 30 min before test, apomorphine 0.75 mg/kg s.c.
[9] = read-out: Verticalization (Apomorphine) ID50
[10] = s.c. 30 min before test, apomorphine 0.75 mg/kg s.c., hydrochloride

SMILES | ED50 at 0.5 h (in vivo) [mg/kg] | Ki (5-HT2A receptors) [nM] | D2 /5-HT2A (5-HT2A receptors) | D2 /5-HT1A (5-HT1A receptors) | Ki (5-HT1A receptors; [6]) [nM] | Ki (5-HT2C receptors [3]) [nM] | Ki (D2 receptors; [7]) [nM] | D2 /5-HT2C (5-HT2C receptors [4]) | selectivity ratio (in vivo) | ED50 [2, 8] [mg/kg] | further results
CN1CCN(C2=Nc3cc(Cl)ccc3Nc3ccccc32)CC1 [Clozapine] | > 40 |  |  |  |  |  |  |  |  |  | cataleptogenic effect [1]: absence of cataleptogenic effect; toxicity (schizophrenia; general treatment of schizophrenic conditions): due to its toxicity, clozapine cannot be envisaged in the general treatment of schizophrenic conditions; extrapyramidal syndrome (schizophrenia): virtually no extrapyramidal syndrome; Verticalization (Apomorphine) ID50 ([2]; s.c. 30 min before test, apomorphine 0.75 mg/kg s.c.): 2.2 mg/kg/S.C.
COc1ccc2[nH]cc(CCCN3CCC(CC(=O)c4ccc(F)cc4)C3)c2c1.Cl (racemic) [Ex. 3, 3-{3-[3-(4-Fluorobenzoylmethyl)pyrrolidin-1-yl]propyl}-5-methoxyindole hydrochloride] | > 40 | 1 | 5.2 | 5.2 | 1 | 3.3 | 5.2 | 1.6 | > 266 | 0.15 | 
COc1ccc2[nH]cc(CCCN3CCC(C(=O)c4ccc(F)cc4)CC3)c2c1.Cl [Ref. A, 3-{3-[4-(4-Fluorobenzoyl)piperidin-1-yl]propyl}-5-methoxyindole hydrochloride, reference compound] | 1.4 | 8.5 | 1.3 | 2 | 5.6 | 98 | 11 | 0.1 | 14 | 0.1 | 
O=C(CCCN1CCC(O)(c2ccc(Cl)cc2)CC1)c1ccc(F)cc1 [Haloperidol] | 0.14 |  |  |  |  |  |  |  |  |  | extrapyramidal syndrome (schizophrenia): cause an extrapyramidal syndrome of Parkinsonian type; treatment of productive symptoms (schizophrenia; such as fantasizing and hallucinations): fairly well; effectiveness with respect to deficiency symptoms (schizophrenia; such as social withdrawal): very low; ED50 [2, 9]: 0.01 mg/kg
COc1ccc2c(c1)c(CCCN1CCC(CC(=O)c3ccc(F)cc3)C1)cn2C.Cl (centres unmarked) [Ex. 6, 1-Methyl-3-{3-[3-(4-fluorobenzoylmethyl)pyrrolidin-1-yl]propyl}-5-methoxyindole hydrochloride] |  | 4.3 | 3.6 | 0.4 | 39 | 17 | 15.4 | 0.9 |  |  | 
COc1ccc2[nH]cc(CCN3CCC(CC(=O)c4ccc(F)cc4)C3)c2c1.Cl (centres unmarked) [Ex. 1, 3-{2-[3-(4-Fluorobenzoylmethyl)pyrrolidin-1-yl]ethyl}-5-methoxyindole hydrochloride] | > 40 | 1.6 | 69 | 183 |  | 50 |  | 22 | > 129 |  | Ki (5-HT1A receptors; Receptor profile Ki, 5-HT1A): 0.6 nM; Ki (D2 receptors): 110 nM; ED50 [2, 9]: 0.31 mg/kg
COc1ccc2c(c1)c(CCN1CCC(CC(=O)c3ccc(F)cc3)C1)cn2C.Cl (centres unmarked) [Ex. 2, 1-Methyl-3-{2-[3-(4-fluorobenzoylmethyl)pyrrolidin-1-yl]ethyl}-5-methoxyindole hydrochloride] | > 40 | 1.3 | 101 | 0.9 | 141 | 16 | 132 | 8.3 | > 32 | 1.25 | 
COc1ccc2[nH]cc(CCCN3CCC(CC(=O)c4ccc(F)cc4)C3)c2c1.Cl (centres unmarked) [Ex. 5, 3-{3-[3-(4-fluorobenzoylmethyl)pyrrolidin-1-yl]propyl}-5-methoxyindole hydrochloride] |  | 1.7 |  |  | 0.4 | 3.8 | 7.1 |  |  |  | D2 /5-HT2A (5-HT2A receptors; hydrochloride): 4.2; D2 /5-HT1A (5-HT1A receptors; hydrochloride): 17.8; D2 /5-HT2C (5-HT2C receptors [4]; hydrochloride): 1.9; Verticalization (Apomorphine) ID50 [2, 10]: 0.13 mg/kg/S.C.; ED50 /ID50 Ratio [5]: > 307; Induction of catalepsy ED50 ([5]; rats, s.c. 30 min before test, dose inducing catalepsy for mean 15 seconds): > 40.0 mg/kg/S.C.
COc1ccc2[nH]cc(CCCN3CCC(CC(=O)c4ccc(F)cc4)C3)c2c1.Cl (centres unmarked) [Ex. 4, 3-{3-[3-(4-fluorobenzoylmethyl)pyrrolidin-1-yl]propyl}-5-methoxyindole hydrochloride] | > 40 | 1.2 |  |  | 1.1 | 4 | 6.3 |  |  |  | D2 /5-HT2A (5-HT2A receptors; hydrochloride): 5.2; D2 /5-HT1A (5-HT1A receptors; hydrochloride): 5.7; D2 /5-HT2C (5-HT2C receptors [4]; hydrochloride): 1.6; Verticalization (Apomorphine) ID50 [2, 10]: 0.3 mg/kg/S.C.; ED50 /ID50 Ratio [5]: > 133
COc1ccc2[nH]cc(CCCN3CCC(Cc4noc5cc(F)ccc45)C3)c2c1.Cl (centres unmarked) [Ex. 9, 6-Fluoro-3-{1-[3-(5-methoxyindol-3-yl)propyl]pyrrolidin-3-ylmethyl}-1,2-benzisoxazole hydrochloride] | > 40 | 3.2 | 31 | 143 | 0.7 | 7.9 | 98 | 13 | > 40 | 1 | 
COc1ccc2[nH]cc(CCCN3CCCC(C(=O)c4ccc(F)cc4)CC3)c2c1.Cl (centres unmarked) [Ex. 7, 3-{3-[4-(4-Fluorobenzoyl)perhydroazepin-1-yl]propyl}-5-methoxyindole hydrochloride] | > 40 | 2.7 | 1.6 | 62 | 0.7 | 117 | 43.5 | 0.4 | > 80 | 0.5 | 
Cl.O=C(CC1CCN(CCCc2c[nH]c3ccc(F)cc23)C1)c1ccc(F)cc1 (centres unmarked) [Ex. 8, 3-{3-[3-(4-Fluorobenzoylmethyl)pyrrolidin-1-yl]propyl}-5-fluoroindole hydrochloride] | > 40 | 6.6 | 1.4 | 0.8 | 12.3 | 19 | 9.5 | 0.5 | > 80 | 0.5 | 
